Results from paper PMC12134183, “Structural analysis of full-length human transmembrane protein 94 argues against its classification as a P-type Mg^2+ ATPase” (Cell Discovery, 2025).

Target: T1, TMEM94 (Homo sapiens, UniProt Q12767)
T1 construct: full-length, purified in detergent micelles; TMD extends to residue 1356; N-glycosylated
T1 sequence (Q12767 1-1356): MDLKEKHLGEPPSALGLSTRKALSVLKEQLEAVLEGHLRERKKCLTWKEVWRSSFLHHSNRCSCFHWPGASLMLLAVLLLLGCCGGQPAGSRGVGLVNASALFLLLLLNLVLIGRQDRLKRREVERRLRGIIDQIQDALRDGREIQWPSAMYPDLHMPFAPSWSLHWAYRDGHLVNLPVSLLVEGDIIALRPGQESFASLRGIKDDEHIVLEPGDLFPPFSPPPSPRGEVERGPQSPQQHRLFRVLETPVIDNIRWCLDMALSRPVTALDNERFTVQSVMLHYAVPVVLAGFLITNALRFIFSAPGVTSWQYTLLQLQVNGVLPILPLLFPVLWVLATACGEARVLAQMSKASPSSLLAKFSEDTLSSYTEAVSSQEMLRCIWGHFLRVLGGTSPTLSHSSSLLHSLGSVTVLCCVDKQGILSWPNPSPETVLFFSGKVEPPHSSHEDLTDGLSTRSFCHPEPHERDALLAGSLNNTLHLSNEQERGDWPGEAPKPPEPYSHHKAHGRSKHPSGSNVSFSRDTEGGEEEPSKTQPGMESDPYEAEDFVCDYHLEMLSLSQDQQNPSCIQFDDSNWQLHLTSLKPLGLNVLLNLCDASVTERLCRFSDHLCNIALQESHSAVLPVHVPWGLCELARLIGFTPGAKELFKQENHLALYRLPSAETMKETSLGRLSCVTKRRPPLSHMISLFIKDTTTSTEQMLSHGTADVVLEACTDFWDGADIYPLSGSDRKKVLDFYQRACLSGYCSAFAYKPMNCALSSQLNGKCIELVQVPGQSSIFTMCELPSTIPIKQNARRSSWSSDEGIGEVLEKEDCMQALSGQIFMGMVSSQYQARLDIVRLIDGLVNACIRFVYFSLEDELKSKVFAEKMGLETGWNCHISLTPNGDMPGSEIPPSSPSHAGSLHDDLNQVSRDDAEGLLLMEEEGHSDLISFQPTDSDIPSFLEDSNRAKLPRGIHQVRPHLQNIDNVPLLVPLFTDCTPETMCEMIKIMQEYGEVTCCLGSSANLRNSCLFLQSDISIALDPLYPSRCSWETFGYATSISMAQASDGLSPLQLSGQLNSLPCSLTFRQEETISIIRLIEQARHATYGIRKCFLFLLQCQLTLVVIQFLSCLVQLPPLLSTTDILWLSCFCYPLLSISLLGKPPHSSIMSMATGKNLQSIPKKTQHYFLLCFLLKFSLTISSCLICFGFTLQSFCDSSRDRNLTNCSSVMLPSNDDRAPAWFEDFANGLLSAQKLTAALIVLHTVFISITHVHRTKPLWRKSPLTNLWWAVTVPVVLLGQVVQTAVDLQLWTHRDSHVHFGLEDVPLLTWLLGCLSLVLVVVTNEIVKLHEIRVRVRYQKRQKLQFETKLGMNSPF
Experiment: microscale thermophoresis (MST)
Type: binding

For `Nc1ncnc2c1ncn2[C@@H]1O[C@H](COP(=O)(O)OP(=O)(O)CP(=O)(O)O)[C@@H](O)[C@H]1O` [AMPPCP], the Kd was 5.48 ± 1.41 µM.
